Laboratory results as given in patent US5719145A, “Amidine derivatives and platelet aggregation inhibitor containing the same” (Mitsui Toatsu Chemicals, Inc., priority 1996, dated 1998).
Structures can show the parent of a compound that is named as a salt.

What was measured:
[1] = test system: human platelets (platelet-rich plasma); assay: In vitro inhibition of platelet aggregation in human (ADP-induced, PRP); assay type: cell-based; conditions: ADP final concentration 5 μM, read-out: Platelet aggregation inhibitory activity in human, IC50
Method: 2. Inhibition of platelet aggregation in human
Blood was collected from healthy human volunteers with an injection syringe and mixed one volume of 3.8% of sodium citrate as an anticoagulant to 9 volumes of the blood. Successively, the obtained blood mixture was subjected to centrifugation at 120×g for 15 minutes at room temperature to obtain platelet-rich plasma (PRP). An aliquot of PRP was further subjected to centrifugation at 1,200×g for 20 minutes to obtain platelet-poor plasma (PPP). Numbers of the platelet were measured with an automatic platelet counter: Sysmex PL-100 (manufactured by Toa Iyodenshi Co.) and PRP was diluted with PPP so as to adjust a platelet concentration to be about 250,000 particles/μl. Platelet aggregation was measured by the following procedure with a 6 channel aggregometer: HEMA TRACER 1 (manufactured by NKK Co.)
(§1) After incubation of 240 μl of PRP at 37° C. for 2 minutes, 30 μl of the solvent of specimen as a control or the specimen in various concentrations was added to PRP. Further 2 minutes later, 30 μl of adenosine diphosphate (final concentration: 5 μM) was added to induce platelet aggregation. An inhibition percentage was obtained by comparing the maximum aggregation of the specimen drug group with that of control. […]

[2] = molecular target: T1, human fibrinogen receptor GP IIb/IIIa (Homo sapiens, UniProt P05106+P08514); assay: Binding inhibition of biotinylated fibrinogen to GP IIb/IIIa; conditions: purified human GP IIb/IIIa, read-out: Inhibition of GPIIb/IIIa . Fibrinogen Binding, IC50
T1 construct: Concentrated and lyophilized human platelet (20 vial) (Organon Teknika Co.) was lysed; tissue Organon Teknika Co; host or cells: human platelets (lyophilized), lysed in Triton X-100
Method: Experiment for binding inhibition between GP IIb/IIIa and fibrinogen
1. Purification of human fibrinogen receptor GP IIb/IIIa
Concentrated and lyophilized human platelet (20 vial) (Organon Teknika Co.) was lysed in an antienzymic solution (80 ml) (1% Triton X-100, 10 mM Tris-HCl, 150 mM NaCl, 1 mM CaCl2, 10 μM leupeptin, 1 mM phenylmethane sulfonyl fluoride, pH 7.4), allowed to incubate for an hour at 4° C., and centrifuged at 30,000×g for 15 minutes to recover the supernatant solution containing 150 mg of protein. The GP IIb/IIIa was purified according to the method of Phillips et al. [Methods in Enzymology Vol. 215, (J. J. Hawigar, Eds.), 244-263, Acedemic Press Inc., San Diego].
2. Preparation of biotinylated fibrinogen
Human fibrinogen Grade L (KABI Co.) was purified by using Shepharose CL-6B and Lysine-Sepharose. Thus purified human fibrinogen (2.3 mg/ml) was dialyzed for 3 hours with 0.1M aqueous sodium bicarbonate solution at room temperature and successively diluted to 1 mg/ml. To the solution (4.5 ml) obtained, NHC-LC-Biotin (2 mg) (Pierce Co.) was added and reacted for 1 hour at room temperature to biotinylate fibrinogen. The reaction mixture was dialyzed at 4° C. for 24 hours with TBS (20 mM Tris-HCl, 150 mM NaCl, 1 mM CaCl2, 1 mM MgCl2, pH 7.4) to obtain biotinylated fibrinogen.
3. Binding inhibition of biotinylated fibrinogen to GP IIb/IIIa
Specimen drugs were dissolved and diluted with TBS containing 1% BSA. To each solution, an equal volume of biotinylated fibrinogen (2 μg/ml) dissolved in TBS containing 1% BSA, was added. The inhibition percentage of specimen drugs were measured by the method of Mori et al. [Jpn. J. Thromb. Hemost., 2, 323-399 (1991) with small modification].
Purified GP IIb/IIIa was diluted to 1.5 μg/ml in TBS containing 0.0005% of Triton X-100. The GP IIb/IIIa solution was added to a 96 well microplate (E.I.A/R.I.A. Plate, Costar Co.) in a volume of 100 μl for each well, and incubated at 4° C. for 24 hours to immobilize GP IIb/IIIa. The microplate was washed twice with a washing solution (TBS containing 0.01% of Tween 20). Thereafter TBS containing 3.5% of BSA was added to each well in a volume of 200 μl and blocking was carried out for about an hour at room temperature. The microplate was further washed twice with the washing solution, and successively a mixture of the specimen drug and the biotinylated fibrinogen was added in a volume of 100 μl/well and incubated for 24 hours at room temperature. The microplate was thereafter washed five times, and peroxidase-labeled streptoavidin (a kit of Amersham Co.) which was previously diluted 3000 times with TBS was added in a volume of 100 μl/well and incubated for about 30 minutes at room temperature. After washing the microplate 5 times, a 0.05M phosphate-citrate buffer solution (pH5) containing o-phenylenediamine(0.4 mg/ml) (manufactured by Sigma Co.) and H2 O2 (0.012%) was added in a volume of 200 μl/well to develop color for 20-40 minutes. The reaction was stopped by addition of 0.3M sulfuric acid in a volume of 50 μl/well and absorbance at 490 nm was measured with Immunoreader NJ-200 (manufactured by Inter Med Co.). […]

[3] = test system: guinea pig platelets (platelet-rich plasma); assay: In vitro inhibition of platelet aggregation in guinea pig (ADP-induced, PRP); assay type: cell-based; conditions: Cavia porcellus, ADP final concentration 5 μM, read-out: Platelet aggregation inhibitory activity in guinea pig, IC50
Method: In vitro experiment of platelet aggregation inhibition
1. Inhibition of platelet aggregation in Guinea pig
Blood of male guinea pig was collected with an injection syringe which contains 3.8 % sodium citrate as an anticoagulant in a ratio of 1 volume to 9 volumes of the blood. Successively, the collected blood mixture was subjected to centrifugation at 120×g for 15 minutes at room temperature to obtain platelet-rich plasma (PRP). An aliquot of PRP was further subjected to centrifugation at 1,200×g for 15 minutes to obtain platelet-poor plasma (PPP). Numbers of the platelet in PRP were measured with an automatic platelet counter: Sysmex PL-100 (manufactured by Toa Iyodenshi Co.) and PRP was diluted with PPP so as to adjust a platelet concentration to be about 300,000 particles/ μl. Platelet aggregation was measured by the following procedure with a 6 channel aggregometer: HEMA TRACER 1 (manufactured by NKK Co.).
as §1, with “control or of the specimen” for “control or the specimen”, “(final concentration: 5μM) was added” for “(final concentration: 5 μM) was added”

[4] = test system: guinea pig platelets (platelet-rich plasma); assay: Inhibition against platelet aggregation ability after oral administration in guinea pig; assay type: in vivo; conditions: Cavia porcellus, 1 h, oral administration: 37 μmol/kg, blood collected after an hour, ADP 5 μM, read-out: Aggregation inhibiting rate (%)
Method: Experiment for inhibition against platelet aggregation ability after oral administration The specimen drug was dissolved or suspended at a concentration of 18.5 μmol/ml in a physiological saline containing 0.5% of Tween 80. […] A physiological saline containing 0.5% of Tween 80 was similarly administered as a control. […] The blood mixture was centrifuged at 800 r.p.m. for 20 minutes at room temperature to obtain PRP in the upper layer. The lower layer was further centrifuged at 3000 r.p.m. for 15 minutes to obtain PPP in upper layer. […] Platelet aggregation ability was measured according to the method for measuring in vitro platelet aggregation. […] HEMA TRACER 1 (manufactured by NKK Co.). After incubation of PRP at 37° C. for 2 minutes, a physiological saline (30 μl) was added. […] An inhibiting ratio was obtained by comparing the maximum aggregation of the specimen drug group with that of control.

T1 sequence (P08514 32-887 limits assumed): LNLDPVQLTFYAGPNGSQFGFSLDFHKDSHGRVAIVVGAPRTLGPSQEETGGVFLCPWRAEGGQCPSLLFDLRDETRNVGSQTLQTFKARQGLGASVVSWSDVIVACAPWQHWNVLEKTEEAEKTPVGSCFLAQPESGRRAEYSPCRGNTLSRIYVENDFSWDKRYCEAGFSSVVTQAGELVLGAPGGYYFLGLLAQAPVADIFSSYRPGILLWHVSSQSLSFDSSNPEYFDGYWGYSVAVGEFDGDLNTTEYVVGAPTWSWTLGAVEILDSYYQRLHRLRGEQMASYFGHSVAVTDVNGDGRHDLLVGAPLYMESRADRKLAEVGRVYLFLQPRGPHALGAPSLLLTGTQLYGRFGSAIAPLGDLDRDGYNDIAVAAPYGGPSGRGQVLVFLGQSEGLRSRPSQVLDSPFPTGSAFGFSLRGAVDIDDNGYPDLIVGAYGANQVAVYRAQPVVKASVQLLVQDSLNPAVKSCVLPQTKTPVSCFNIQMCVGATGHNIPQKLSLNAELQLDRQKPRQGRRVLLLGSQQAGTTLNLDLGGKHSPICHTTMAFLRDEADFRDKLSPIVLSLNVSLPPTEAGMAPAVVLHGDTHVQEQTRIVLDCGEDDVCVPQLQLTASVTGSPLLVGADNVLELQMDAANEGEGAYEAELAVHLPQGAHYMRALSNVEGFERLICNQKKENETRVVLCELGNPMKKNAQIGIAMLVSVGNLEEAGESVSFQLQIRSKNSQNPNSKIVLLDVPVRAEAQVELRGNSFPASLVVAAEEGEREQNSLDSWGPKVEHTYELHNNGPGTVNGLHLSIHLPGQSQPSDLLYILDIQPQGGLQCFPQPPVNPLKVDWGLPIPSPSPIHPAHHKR
T1 sequence (P08514 891-1039 partner limits assumed): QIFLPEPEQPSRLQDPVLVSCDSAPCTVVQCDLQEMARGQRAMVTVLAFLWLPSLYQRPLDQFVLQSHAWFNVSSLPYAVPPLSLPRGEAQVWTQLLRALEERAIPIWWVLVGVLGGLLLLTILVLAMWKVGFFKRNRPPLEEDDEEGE
T1 sequence (P05106 27-788): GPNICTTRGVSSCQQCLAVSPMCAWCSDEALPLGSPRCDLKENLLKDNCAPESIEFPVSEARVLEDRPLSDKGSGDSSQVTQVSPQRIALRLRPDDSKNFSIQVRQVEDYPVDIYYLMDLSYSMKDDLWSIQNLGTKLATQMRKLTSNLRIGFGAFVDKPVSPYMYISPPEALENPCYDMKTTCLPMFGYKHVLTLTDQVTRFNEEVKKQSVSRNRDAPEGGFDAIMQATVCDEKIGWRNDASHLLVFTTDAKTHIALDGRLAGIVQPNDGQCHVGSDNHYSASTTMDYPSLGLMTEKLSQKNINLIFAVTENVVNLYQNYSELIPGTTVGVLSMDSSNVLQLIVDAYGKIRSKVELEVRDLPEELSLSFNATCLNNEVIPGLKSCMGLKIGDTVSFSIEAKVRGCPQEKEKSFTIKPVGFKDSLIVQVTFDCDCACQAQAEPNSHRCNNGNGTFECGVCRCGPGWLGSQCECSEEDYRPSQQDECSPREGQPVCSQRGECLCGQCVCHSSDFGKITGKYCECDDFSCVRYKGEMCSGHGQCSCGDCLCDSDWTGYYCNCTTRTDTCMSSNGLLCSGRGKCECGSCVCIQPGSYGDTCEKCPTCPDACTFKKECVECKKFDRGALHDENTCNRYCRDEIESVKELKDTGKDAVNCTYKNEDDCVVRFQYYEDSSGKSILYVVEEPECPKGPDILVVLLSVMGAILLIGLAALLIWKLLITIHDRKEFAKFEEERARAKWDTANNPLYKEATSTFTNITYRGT

Compound	IC50 [1] [nM]	IC50 [2] [nM]	IC50 [3] [nM]	inhibition at 37 µmol/kg [4] [%]
C#CCNC(=N)c1ccc(C(=O)Nc2ccc3c(c2)CC(CC(=O)O)CC3)cc1 (single isomer, unassigned; (-)) [Example 46, (-)-7-[[4-(N^2-propargylamidino)benzoyl]amino]-1,2,3,4-tetrahydronaphthalene-2-acetic acid hydrochloride]	29	0.11	150	
N=C(c1ccc(C(=O)Nc2ccc3c(c2)CC(CC(=O)O)CC3)cc1)N1CCOCC1 (single isomer, unassigned; (-)) [Example 48, (-)-7-[[4-(morpholinoiminomethyl)benzoyl]amino]-1,2,3,4-tetrahydronaphthalene-2-acetic acid hydrochloride]	33	0.07	69	
C#CCNC(=N)c1ccc(C(=O)Nc2ccc3c(c2)CC(CC(=O)O)CO3)cc1 (single isomer, unassigned; (-)) [Example 50, (-)-6-[[4-(N^2-propargylamidino)benzoyl]amino]chroman-3-acetic acid hydrochloride]	44	0.22	200	
N=C(c1ccc(C(=O)Nc2ccc3c(c2)CC(CC(=O)O)CO3)cc1)N1CCOCC1 (single isomer, unassigned; (-)) [Example 52, (-)-6-[[4-(morpholinoiminomethyl)benzoyl]amino]chroman-3-acetic acid hydrochloride]	35	0.13	110	
N=C(c1ccc(C(=O)Nc2ccc3c(c2)CC(CC(=O)O)CC3)cc1)N1CCOCC1 (stereo not shown) [Example 2, 7-[[4-(morpholinoiminomethyl)benzoyl]amino]-1,2,3,4-tetrahydronaphthalene-2-acetic acid hydrochloride]	68	0.13	140	
N=C(c1ccc(C(=O)Nc2ccc3c(c2)CC(CC(=O)O)CO3)cc1)N1CCOCC1 (stereo not shown) [Example 5, 6-[[4-(morpholinoiminomethyl)benzoyl]amino]chroman-3-acetic acid hydrochloride]	66			
N=C(c1ccc(C(=O)Nc2ccc3c(c2)OCC(CC(=O)O)C3)cc1)N1CCOCC1 (stereo not shown) [Example 9, 7-[[4-(morpholinoiminomethyl)benzoyl]amino]chroman-3-acetic acid hydrochloride]	171			
CN1CCN(C(=N)c2ccc(C(=O)Nc3ccc4c(c3)CC(CC(=O)O)CC4)cc2)CC1 (stereo not shown) [Example 15, dihydrochloride]	110			
N=C(c1ccc(C(=O)Nc2ccc3c(c2)CC(CC(=O)O)CC3)cc1)N1CCCCC1 (stereo not shown) [Example 18, 7-[[4-(piperidinoiminomethyl)benzoyl]amino]-1,2,3,4-tetrahydronaphthalene-2-acetic acid hydrochloride]	140	0.26		
C#CCNC(=N)c1ccc(C(=O)Nc2ccc3c(c2)CC(CC(=O)O)CO3)cc1 (stereo not shown) [Example 27, 6-[[4-(N^2-propargylamidino)benzoyl]amino]chroman-3-acetic acid hydrochloride]	78			
NC(=NCc1ccco1)c1ccc(C(=O)Nc2ccc3c(c2)CC(CC(=O)O)CC3)cc1 (stereo not shown) [Example 30, 7-[[4-[N^2-(2-furfuryl)amidino]benzoyl]amino]-1,2,3,4-tetrahydronaphthalene-2-aceticacid hydrochloride]		0.14	180	
N=C(NCc1ccco1)c1ccc(C(=O)Nc2ccc3c(c2)CN(CC(=O)O)CC3)cc1 [Example 33, 7-[[4-[N^2-(2-furfuryl)amidino]benzoyl]amino]-1,2,3,4-tetrahydroisoquinoline-2-acetic acid dihydrochloride]	160			
C#CCN(C)C(=N)c1ccc(C(=O)Nc2ccc3c(c2)CC(CC(=O)O)CC3)cc1 (stereo not shown) [Example 35, 7-[[4-(N^2-methyl-N^2-propargylamidino)benzoyl]amino]-1,2,3,4-tetrahydronaphthalene-2-acetic acid hydrochloride]	160			
N=C(NCc1cccs1)c1ccc(C(=O)Nc2ccc3c(c2)CC(CC(=O)O)CC3)cc1 (stereo not shown) [Example 37, 7-[[4-[N^2-(2-thenyl)amidino]benzoyl]amino]-1,2,3,4-tetrahydronaphthalene-2-acetic acid hydrochloride]		0.04	220	
CCOC(=O)CC1CCc2ccc(NC(=O)c3ccc(C(=N)NCc4cccnc4)cc3)cc2C1 (stereo not shown) [Example 40, ethyl 7-[[4-[N^2-(3-picolyl)amidino]benzoyl]amino]-1,2,3,4-tetrahydronaphthalene-2-acetatedihydrochloride]			110	> 90
CCCN=C(N)c1ccc(C(=O)Nc2ccc3c(c2)CC(CC(=O)OCC)CC3)cc1 (stereo not shown) [Reference Example 9, ethyl 7-[[4-[N^2-(n-propyl)amidino]benzoyl]amino]-1,2,3,4-tetrahydronaphthalene-2-acetate hydrochloride, reference compound]			520	3
